Data as given in patent US10913738B2 (BRISTOL-MYERS SQUIBB COMPANY, priority 2017, dated 2021).
Like-named read-outs stand apart in the source and are kept apart here.

Legend:
[1] = test system: IL-6; test: TNF-Induced SIRS, serum cytokines (IL-6, KC) by ELISA; assay type: in vivo; details: mouse, relative to 6 mg/kg Nec-1s, read-out: % protection from IL6 increase; for inhibition in vivo at 0.4 mg/kg: 0.4 mg/kg oral gavage 2 h before mTNF
Experimental: (§1) TNF-Induced Systemic Inflammatory Response Syndrome (SIRS)
(§2) RIPK1 inhibitors were evaluated for efficacy in vivo using a TNF-dependent model of systemic “shock”, also known as systemic inflammatory response syndrome (SIRS) (Duprez et al. 2011, Immunity 35(6):908-918). Intravenous injection of murine TNF induces a systemic inflammatory response characterized by a decrease in body temperature and an increase in circulating cytokines (IL-6, KC) in the serum. The addition of zVAD-fmk strongly sensitizes mice to TNF-induced shock through the inhibition of caspases (Cauwels et al., 2003). The combination of pretreatment with zVAD-fmk prior to injection of mTNF forms the basis of the RIPK1-dependent, TNF-induced, inflammatory response in this model.
(§3) Female C57/Bl6 mice (9 to 11 weeks old) were obtained from Jackson Labs (Bar Harbor, Me.). Mice were housed in BMS' animal facility with ad libitum access to food and water. Mice were and allowed to acclimate for at least 2 weeks and typically weighed at least 21 grams before being used in any studies. Group size was 6 mice per treatment. All experiments were conducted with the approval of BMS' Institutional Animal Care and Use Committee (IACUC)
(§4) Program compounds were dosed by oral gavage 2 h before IV challenge with 20 μg of murine TNF (#CRT192C, Cell Sciences, Canton, Mass.). zVAD-fmk (16.7 mg/kg) was given IV, 15 min before mTNF injection. The RIPK1 kinase inhibitor, necrostatin-1s (Nec-1s) was used as a positive control and was dosed at 6 mg/kg, IV, 30 minutes before mTNF challenge. mTNF was diluted in endotoxin-free PBS and 20 μg/mouse was injected in a volume of 0.1 ml into the retro-orbital sinus. All IV injections were done via the retro-orbital sinus and injection sites were alternated (left and right sides).
(§5) Blood samples for PK determination were collected into heparinized microtainer blood tubes (Part #365965, Becton Dickinson, Franklin Lakes N.J.) and mixed well. Dried blood spots (DBS) were prepared by pipetting 10 μl of whole blood, in duplicate, onto bioanalysis cards (#GR2261004, Perkin Elmer, Greenville, S.C.). A serum sample was obtained by collecting blood into a separator tube (#450472, Greiner Bio-One, Austria) and centrifuged (10 min at 10,000 RPM) to separate the serum. All blood samples were obtained from the retro-orbital sinus while under isoflurane anesthesia.
Serum cytokines were evaluated by ELISA assay. IL-6 was measured using OPTeia Kit (Becton Dickinson, Franklin Lakes N.J.) while KC was measured using an R&D Duoset kit (R&D Systems Inc. Minneapolis, Minn.)
(§6) Using these assays, the percent protection of body temperature and percent reduction in IL6 cytokine of the following compounds were determined. See Table B. % Protection is relative to a 6 mg/kg dose of Nec-1s (5-((7-Cl-1H-indol-3-yl)methyl)-3-methylimidazolidine-2,4-dione)).

[2] = target: T1, His-GST-TVMV-hRIPK1(1-324) (Homo sapiens, UniProt Q13546); test: RIPK1 HTRF Binding Assay; details: x marks IC50 class <20 nM; read-out: RIPK1 HTRF binding <20 nM
T1 construct: The coding region of human RIPK1(1-324) flanked by NdeI site at 5′ end; made in house; host or cells: Spodoptera frugiperda (Sf9) insect cells, baculovirus
T1 sequence (Q13546 1-324): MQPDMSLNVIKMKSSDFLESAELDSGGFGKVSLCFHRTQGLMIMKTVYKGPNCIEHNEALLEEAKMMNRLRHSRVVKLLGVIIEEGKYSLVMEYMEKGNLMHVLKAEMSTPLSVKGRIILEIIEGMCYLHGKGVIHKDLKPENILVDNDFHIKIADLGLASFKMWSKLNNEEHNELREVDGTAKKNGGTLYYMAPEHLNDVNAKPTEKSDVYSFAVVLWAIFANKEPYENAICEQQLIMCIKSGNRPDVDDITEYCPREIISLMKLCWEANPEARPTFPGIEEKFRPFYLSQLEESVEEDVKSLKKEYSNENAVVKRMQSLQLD

[3] = test system: MLKL phosphorylation in HT29-L23 human colorectal adenocarcinoma cells; test: MLKL Phosphorylation High-Content Assay; assay type: cell-based; details: Homo sapiens
Outline: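 Cells incubated six hours at 37° C., then phospho-MLKL (S358) immunostained overnight at 4° C. and imaged by high-content microscopy. Phosphorylation quantified as mean circ-ring average intensity ratio; IC50 and Ymax from 4-parameter logistic fits.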

[4] = Exposure in TNF-induced SIRS study (blood samples for PK determination); assay type: in vivo; details: mouse
Experimental: as §4, §5

[5] = test system: Female C57/Bl6 mice, mTNF + zVAD-fmk induced hypothermia; test: TNF-Induced Systemic Inflammatory Response Syndrome (SIRS), body temperature; assay type: in vivo; details: mouse, 3 h after mTNF, relative to 6 mg/kg Nec-1s, read-out: % protection from body temp loss; for inhibition in vivo at 0.4 mg/kg: 0.4 mg/kg oral gavage 2 h before mTNF
Experimental: as §1, §2, §3, §4
Three (3) hours after mTNF injection, mice were assessed for hypothermia and mortality. Rectal body temperature was recorded with an electric thermometer (Acorn Series Model JKT with a Ret-3 probe, Oakton Instruments Vernon Hills Ill. 60061).
as §6

[6] = x marks IC50 class <20 nM, read-out: pMLKL cell activity <20 nM
[7] = 1.0 mg/kg oral gavage 2 h before mTNF

| Structure (SMILES) | inhibition in vivo at 0.4 mg/kg [1] | IC50 [2] | IC50 [3, 6] | Exposure ([4]; 0.4 mg/kg oral gavage) | inhibition in vivo at 0.4 mg/kg [5] | inhibition in vivo at 1 mg/kg [1, 7] | IC50 ([3]; x marks IC50 class 20-200 nM, read-out: pMLKL cell activity 20-200 nM) | Exposure ([4]; 1.0 mg/kg oral gavage) | inhibition in vivo at 1 mg/kg [5, 7] |
| --- | --- | --- | --- | --- | --- | --- | --- | --- | --- |
| COc1ncc(-c2ccn3nc(N)nc3c2)cc1C(=O)NCc1cc(F)cc(F)c1OCC1CC1 [Example 131, 5-{2-amino-[1,2,4]triazolo[1,5-a]pyridin-7-yl}-N-{[2-(cyclopropylmethoxy)-3,5-difluorophenyl]methyl}-2-methoxypyridine-3-carboxamide] | 8% | < 0.02 µM | < 0.02 µM | 50 nM | 15% | – | – | – | – |
| COc1ncc(-c2ccn3nc(N)nc3c2)cc1C(=O)N1CCC[C@@H](Cc2ccc(F)cc2)C1 [Example 136, 7-{5-[(3S)-3-[(4-fluorophenyl)methyl]piperidine-1-carbonyl]-6-methoxypyridin-3-yl}-[1,2,4]triazolo[1,5-a]pyridin-2-amine] | 80% | < 0.02 µM | < 0.02 µM | 364 nM | 106% | – | – | – | – |
| COc1ncc(-c2ccn3nc(N)nc3c2)cc1C(=O)NCc1cc(OC(F)(F)F)ccc1F [Example 160, 5-{2-amino-[1,2,4]triazolo[1,5-a]pyridin-7-yl}-N-{[2-fluoro-5-(trifluoromethoxy)phenyl]methyl}-2-methoxypyridin-3-carboxamide] | – | < 0.02 µM | – | – | – | 60% | 0.02 to 0.2 µM | 693 nM | 107% |
